Results as given in patent US20140162285A1, “Methods of Modulating Vesicular Trafficking” (The General Hospital Corporation, priority 2009, published 2014).
“Also recorded” adds a separate entry of the source. Peptide text beside a SMILES is read from it. * marks the point of attachment. Biotin = O=C1N[C@H]2[C@H](CS[C@H]2CCCCC(=O)*)N1

T1: Sec7-domain of ARNO (Homo sapiens, UniProt Q99418)
T1 construct: iii) 61-252aa, Sec7 domain; GST (N, cleaved yes); made in house; host or cells: E. coli BL21(DE3)
T1 sequence (Q99418 61-252): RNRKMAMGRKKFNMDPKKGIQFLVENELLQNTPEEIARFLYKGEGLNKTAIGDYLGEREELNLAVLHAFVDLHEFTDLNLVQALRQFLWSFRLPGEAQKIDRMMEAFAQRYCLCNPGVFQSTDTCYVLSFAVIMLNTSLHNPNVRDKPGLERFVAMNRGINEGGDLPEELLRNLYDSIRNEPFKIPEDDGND

T2: ARNO's GEF activity with Arf6 (Homo sapiens, UniProt Q99418)
T2 sequence (Q99418 1-400): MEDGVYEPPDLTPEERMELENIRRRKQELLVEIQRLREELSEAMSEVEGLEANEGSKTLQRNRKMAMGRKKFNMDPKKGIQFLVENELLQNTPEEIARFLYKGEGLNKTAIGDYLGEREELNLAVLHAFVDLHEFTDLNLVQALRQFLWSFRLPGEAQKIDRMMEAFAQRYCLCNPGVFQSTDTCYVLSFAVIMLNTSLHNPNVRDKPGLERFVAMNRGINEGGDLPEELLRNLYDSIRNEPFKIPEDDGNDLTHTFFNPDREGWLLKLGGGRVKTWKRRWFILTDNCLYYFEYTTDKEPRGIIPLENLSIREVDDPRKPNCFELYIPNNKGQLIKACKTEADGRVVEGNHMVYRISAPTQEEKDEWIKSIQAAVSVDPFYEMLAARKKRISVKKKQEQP


Columns and labels:
Sec7-domain of ARNO = biological target: T1, Sec7-domain of ARNO; experiment: a2N-derived peptide pull-down with GST-Sec7 domain; format: binding; conditions: GST-Sec7-6His
Method: FIGS. 5A-C are a set of three images of Western blots showing the identification of interaction motif of a2N that is involved in specific binding with the Sec7 domain of ARNO. 5A, The catalytic Sec7 domain of ARNO interacts with two a2N-derived peptides, a2N-01 and a2N-03, in pull-down experiments. The peptide pull-down assay was performed with six a2N-derived interaction peptides immobilized on streptavidin-beads and incubated with purified recombinant GST-only or GST-Sec7 domain. Interacting complexes were eluted and analyzed by Western blotting using monoclonal anti-GST antibodies as described below. The loading controls for GST-only (lane 1) or GST-Sec7 (lane 2) are shown. […] The peptide pull-down assay was performed with peptides a2N-01 and a2N-03 immobilized on streptavidin-beads and incubated with purified recombinant GST-PH domain (5B) or GST-PB domain (5C). Interacting complexes were eluted and analyzed by Western blotting using monoclonal anti-GST antibodies. […]
These a2N-derived peptides were immobilized by an N-terminal biotin-tag, which ensured the same efficiency and equivalent binding to streptavidin-agarose beads. […] After washing beads four times in ice-cold binding buffer, the interacting complexes were eluted by boiling in SDS-PAGE sample buffer for 10 min at 95° C., resolved by SDS-PAGE and analyzed by Western blotting using monoclonal anti-GST antibody.

[1] = biological target: T2, ARNO's GEF activity with Arf6; experiment: radiolabel GDP/GTP-exchange (GEF) activity assay of ARNO with Arf6; format: biochemical; conditions: recombinant protein
Method: To test the effect of V-ATPase-derived peptides on enzymatic activity of small GTPases, the GDP/GTP exchange activity assay of ARNO with Arf6 was established in the presence of GTPγS and phospholipids vesicles containing various amounts of phosphatidylinositol PIP2 (FIG. 8).
Phospholipid vesicles were prepared by the extrusion method (Macia and Paris Biochemistry, 39: 5893-5901 (2000)). The lipids were dissolved in chloroform. A film of phospholipids was formed by evaporating chloroform and was resuspended in 50 mM Hepes, pH 7.5, and 1 mM dithiothreitol. The suspension was freeze-thawed 3 times and was passed through a 0.1 μm pore size polycarbonate filter.
GDP/GTP-exchange activity of ARNO was measured using time-course radiolabel based assay as previously described (Santy et al., Curr Biol. 9:1173-1176 (1999)). […] After washing filters 3 times with 2 ml of stop buffer, radioactivity was quantified using Perkin-Elmer “Tri-Carb 2900TR” liquid-scintillation counter.
In peptide-inhibition experiments, 500 nM of recombinant ARNO were incubated in the presence of different amounts (0-2000 nM) of FITC-a2N-01-TAT peptide or FITC-TAT peptide as a control. […] The enzymatic activities were followed for 30 min at 37° C. and radioactivity of aliquots were analyzed as described above.

modulation of GDP/GTP-exchange activity of ARNO [1] | Molecule | interaction with Sec7-domain of ARNO (Sec7-domain of ARNO)
– | CSCC[C@H](NC(=O)CCCC[C@@H]1SC[C@@H]2NC(=O)N[C@@H]21)C(=O)NCC(=O)N[C@@H](CO)C(=O)N[C@@H](CC(C)C)C(=O)N[C@@H](Cc1ccccc1)C(=O)N[C@@H](CCCNC(=N)N)C(=O)N[C@@H](CO)C(=O)N[C@@H](CCC(=O)O)C(=O)N[C@@H](CO)C(=O)N[C@@H](CCSC)C(=O)N[C@@H](CS)C(=O)N[C@@H](CC(C)C)C(=O)N[C@@H](C)C(=O)N[C@@H](CCC(N)=O)C(=O)N[C@@H](CC(C)C)C(=O)N[C@@H](Cc1ccccc1)C(=O)N[C@@H](CC(C)C)C(=O)N[C@@H](CS)C(=O)O [a2N-01, Bio-MGSLFRSE SMCLAQLFL-Cys] (Biotin-MGSLFRSESMCLAQLFLC-OH; N-terminus and C-terminus assumed) | interact; also recorded: specifically interacts
successfully used to modulate | a2N: recombinant N-terminal cytosolic tail, amino acid residues 1-402 of mouse V-ATPase a2-subunit (protein, left off: small tags and cut ends, recombinant N-terminal cytosolic tail, amino acid residues 1-402 of mouse V-ATPase a2-subunit) MGSLFRSESMCLAQLFLQSGTAYECLSALGEKGLVQFRDLNQNVSSFQRKFVGEVKRCEELERILVYLVQEITRADIPLPEGEASPPAPPLKHVLEMQEQLQKLEVELREVTKNKEKLRKNLLELVEYTHMLRVTKTFLKRNVEFEPTYEEFPALENDSLLDYSCMQRLGAKLGFVSGLIQQGRVEAFERMLWRACKGYTIVTYAELDECLEDPETGEVIKWYVFLISFWGEQIGHKVKKICDCYHCHIYPYPNTAEERREIQEGLNTRIQDLYTVLHKTEDYLRQVLCKAAESVCSRVVQVRKMKAIYHMLNMCSFDVTNKCLIAEVWCPEVDLPGLRRALEEGSRESGATIPSFMNTIPTKETPPTLIRTNKFTEGFQNIVDAYGVGSYREVNPALFTII | –
